Assay results reported in patent US20180170904A1, “PYRIDIN-3-YL ACETIC ACID DERIVATIVES AS INHIBITORS OF HUMAN IMMUNODEFICIENCY VIRUS REPLICATION” (priority 2015, published 2018).

The compounds below were run on NL-RLuc virus (recombinant NL4-3 proviral clone with Renilla Luciferase gene) (assay: Inhibition of HIV replication (NL-RLuc reporter virus in MT-2 cells)). Settings: Renilla, NL43, 120 h, read-out: Activity.
Format: cell-based
In short: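 Antiviral EC50 came from luciferase signal after 5-day multicycle replication of NL-RLuc virus in MT-2 cells with serially diluted compound (RPMI 1640, 10% heat-inactivated FBS), fitted by the median effect equation over at least 2 experiments.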
Work on `Cc1nc(C)c([C@H](OC(C)(C)C)C(=O)O)c(N2CCC(C)(C)CC2)c1-c1ccc(-c2ncc(-c3ccc(F)cc3)o2)cc1` [Example 5, (S)-2-(tert-Butoxy)-2-(4-(4,4-dimethylpiperidin-1-yl)-5-(4-(5-(4-fluorophenyl)oxazol-2-yl)phenyl)-2,6-dimethylpyridin-3-yl)acetic acid] yielded an EC50 of under 0.1 µM.
Work on `Cc1nc(C)c([C@H](OC(C)(C)C)C(=O)O)c(N2CCC(C)(C)CC2)c1-c1ccc(NC(=O)Cc2ccc(F)cc2)cc1` [Example 72, (S)-2-(tert-Butoxy)-2-(4-(4,4-dimethylpiperidin-1-yl)-5-(4-(2-(4-fluorophenyl)acetamido)phenyl)-2,6-dimethylpyridin-3-yl)acetic acid] yielded an EC50 of under 0.1 µM.
`Cc1nc(C)c([C@H](OC(C)(C)C)C(=O)O)c(N2CCC(C)(C)CC2)c1-c1cc(F)c(F)c(F)c1` [Example 33, (S)-2-(tert-Butoxy)-2-(4-(4,4-dimethylpiperidin-1-yl)-2,6-dimethyl-5-(3,4,5-trifluorophenyl)pyridin-3-yl)acetic acid] was tested, and the EC50 was under 0.1 µM.
`Cc1nc(C)c([C@H](OC(C)(C)C)C(=O)O)c(N2CCC(C)(C)CC2)c1-c1ccc(Cc2ccccc2)cc1` [Example 15, (S)-2-(5-(4-Benzylphenyl)-4-(4,4-dimethylpiperidin-1-yl)-2,6-dimethylpyridin-3-yl)-2-(tert-butoxy)acetic acid] showed an EC50 of under 0.1 µM.
`Cc1nc(C)c([C@H](OC(C)(C)C)C(=O)O)c(N2CCC(C)(C)CC2)c1-c1ccc(S(=O)(=O)CCc2ccc(F)cc2)cc1` [Example 79, (S)-2-(tert-Butoxy)-2-(4-(4,4-dimethylpiperidin-1-yl)-5-(4-((4-fluorophenethyl)sulfonyl)phenyl)-2,6-dimethylpyridin-3-yl)acetic acid] showed an EC50 of under 0.1 µM.
`Cc1nc(C)c([C@H](OC(C)(C)C)C(=O)O)c(N2CCC(C)(C)CC2)c1-c1ccc(CC(N)=O)cc1` [Example 26, (S)-2-(5-(4-(2-Amino-2-oxoethyl)phenyl)-4-(4,4-dimethylpiperidin-1-yl)-2,6-dimethylpyridin-3-yl)-2-(tert-butoxy)acetic acid] gave an EC50 of 0.1 to 1 µM.
`COC1(C)CCN(c2c(-c3ccc(C(=O)NCc4ccccc4)cc3)c(C)nc(C)c2[C@H](OC(C)(C)C)C(=O)O)CC1` [Example 60, (S)-2-(5-(4-(Benzylcarbamoyl)phenyl)-4-(4-methoxy-4-methylpiperidin-1-yl)-2,6-dimethylpyridin-3-yl)-2-(tert-butoxy)acetic acid] was tested, and the EC50 was under 0.1 µM.
`Cc1nc(C)c([C@H](OC(C)(C)C)C(=O)O)c(N2CCC(C)CC2)c1-c1ccc(C(=O)NCc2ccccc2)cc1` [Example 58, (S)-2-(5-(4-(Benzylcarbamoyl)phenyl)-2,6-dimethyl-4-(4-methylpiperidin-1-yl)pyridin-3-yl)-2-(tert-butoxy)acetic acid] was tested, and the EC50 was under 0.1 µM.
Compound `Cc1nc(C)c([C@H](OC(C)(C)C)C(=O)O)c(N2CCC(C)(C)CC2)c1-c1ccc(N)cc1` [Example 70, (S)-2-(5-(4-Aminophenyl)-4-(4,4-dimethylpiperidin-1-yl)-2,6-dimethylpyridin-3-yl)-2-(tert-butoxy)acetic acid] has an EC50 of 0.1 to 1 µM.
In the case of `CNS(=O)(=O)c1ccc(-c2c(C)nc(C)c([C@H](OC(C)(C)C)C(=O)O)c2N2CCC(C)(C)CC2)cc1` [Example 32, (S)-2-(tert-Butoxy)-2-(4-(4,4-dimethylpiperidin-1-yl)-2,6-dimethyl-5-(4-(N-methylsulfamoyl)phenyl)pyridin-3-yl)acetic acid], the EC50 is reported as 0.1 to 1 µM.
With `Cc1nc(C)c([C@H](OC(C)(C)C)C(=O)O)c(N2CCC(C(F)(F)F)CC2)c1-c1ccc(C(=O)NCc2ccccc2)cc1` [Example 54, (S)-2-(5-(4-(Benzylcarbamoyl)phenyl)-2,6-dimethyl-4-(4-(trifluoromethyl)piperidin-1-yl)pyridin-3-yl)-2-(tert-butoxy)acetic acid] the EC50 was under 0.1 µM.
Compound `Cc1nc(C)c([C@H](OC(C)(C)C)C(=O)O)c(N2CCC(C)(C)CC2)c1-c1ccc(CCCO)cc1` [Example 31, (S)-2-(tert-Butoxy)-2-(4-(4,4-dimethylpiperidin-1-yl)-5-(4-(3-hydroxypropyl)phenyl)-2,6-dimethylpyridin-3-yl)acetic acid] has an EC50 of under 0.1 µM.
`CCC1(C)CCN(c2c(-c3ccc(C(=O)NCc4ccccc4)cc3)c(C)nc(C)c2[C@H](OC(C)(C)C)C(=O)O)CC1` [Example 56, (S)-2-(5-(4-(Benzylcarbamoyl)phenyl)-4-(4-ethyl-4-methylpiperidin-1-yl)-2,6-dimethylpyridin-3-yl)-2-(tert-butoxy)acetic acid] gave an EC50 of under 0.1 µM.
Compound `Cc1nc(C)c([C@H](OC(C)(C)C)C(=O)O)c(N2CCC(C)(C)CC2)c1-c1ccc(-c2ccc(Cl)cc2)cc1` [Example 11, (S)-2-(tert-Butoxy)-2-(5-(4′-chloro-[1,1′-biphenyl]-4-yl)-4-(4,4-dimethylpiperidin-1-yl)-2,6-dimethylpyridin-3-yl)acetic acid] has an EC50 of 0.1 to 1 µM.
Compound `CC(=O)NNC(=O)c1ccc(-c2c(C)nc(C)c([C@H](OC(C)(C)C)C(=O)O)c2N2CCC(C)(C)CC2)cc1` [Example 37, (S)-2-(5-(4-(2-Acetylhydrazinecarbonyl)phenyl)-4-(4,4-dimethylpiperidin-1-yl)-2,6-dimethylpyridin-3-yl)-2-(tert-butoxy)acetic acid] has an EC50 of over 1 µM.
Compound `Cc1nc(C)c([C@H](OC(C)(C)C)C(=O)O)c(N2CCC(C)(C)CC2)c1-c1ccc(SCCC(C)C)cc1` [Example 23, (S)-2-(tert-Butoxy)-2-(4-(4,4-dimethylpiperidin-1-yl)-5-(4-(isopentylthio)phenyl)-2,6-dimethylpyridin-3-yl)acetic acid] has an EC50 of under 0.1 µM.
Work on `Cc1nc(C)c([C@H](OC(C)(C)C)C(=O)O)c(N2CCC(C)(F)CC2)c1-c1ccc(C(=O)NCc2ccccc2)cc1` [Example 65, (S)-2-(5-(4-(Benzylcarbamoyl)phenyl)-4-(4-fluoro-4-methylpiperidin-1-yl)-2,6-dimethylpyridin-3-yl)-2-(tert-butoxy)acetic acid] yielded an EC50 of under 0.1 µM.
In the case of `CCOc1cc(F)cc(F)c1CNC(=O)c1ccc(-c2c(C)nc(C)c([C@H](OC(C)(C)C)C(=O)O)c2N2CCC(C)(C)CC2)cc1` [Example 67, (S)-2-(tert-Butoxy)-2-(4-(4,4-dimethylpiperidin-1-yl)-5-(4-((2-ethoxy-4,6-difluorobenzyl)carbamoyl)phenyl)-2,6-dimethylpyridin-3-yl)acetic acid], the EC50 is reported as under 0.1 µM.
Compound `Cc1nc(C)c([C@H](OC(C)(C)C)C(=O)O)c(N2CCC(C)(C)CC2)c1-c1ccc(-c2nnn[nH]2)cc1` [Example 46, (S)-2-(5-(4-(1H-Tetrazol-5-yl)phenyl)-4-(4,4-dimethylpiperidin-1-yl)-2,6-dimethylpyridin-3-yl)-2-(tert-butoxy)acetic acid] has an EC50 of over 1 µM.
Compound `Cc1nc(C)c([C@H](OC(C)(C)C)C(=O)O)c(N2CCC(C)(C)CC2)c1-c1ccc(S(=O)(=O)NC2CC2)cc1` [Example 35, (S)-2-(tert-Butoxy)-2-(5-(4-(N-cyclopropylsulfamoyl)phenyl)-4-(4,4-dimethylpiperidin-1-yl)-2,6-dimethylpyridin-3-yl)acetic acid] has an EC50 of 0.1 to 1 µM.
With `Cc1nc(C)c([C@H](OC(C)(C)C)C(=O)O)c(N2CCC(C)(C)CC2)c1-c1cc(F)c(CO)c(F)c1` [Example 34, (S)-2-(tert-Butoxy)-2-(5-(3,5-difluoro-4-(hydroxymethyl)phenyl)-4-(4,4-dimethylpiperidin-1-yl)-2,6-dimethylpyridin-3-yl)acetic acid] the EC50 was under 0.1 µM.
In the case of `Cc1cccc(-c2ccc(-c3c(C)nc(C)c([C@H](OC(C)(C)C)C(=O)O)c3N3CCC(C)(C)CC3)cc2)c1` [Example 17, (S)-2-(tert-Butoxy)-2-(4-(4,4-dimethylpiperidin-1-yl)-2,6-dimethyl-5-(3′-methyl-[1,1′-biphenyl]-4-yl)pyridin-3-yl)acetic acid], the EC50 is reported as under 0.1 µM.
`CC(C)=C1CCN(c2c(-c3ccc(C(=O)NCc4ccccc4)cc3)c(C)nc(C)c2[C@H](OC(C)(C)C)C(=O)O)CC1` [Example 63, (S)-2-(5-(4-(Benzylcarbamoyl)phenyl)-2,6-dimethyl-4-(4-(propan-2-ylidene)piperidin-1-yl)pyridin-3-yl)-2-(tert-butoxy)acetic acid] gave an EC50 of 0.1 to 1 µM.
With `Cc1nc(C)c([C@H](OC(C)(C)C)C(=O)O)c(N2CCC(C)(C)CC2)c1-c1ccc(/C=C/C#N)cc1` [Example 49, (S,E)-2-(tert-Butoxy)-2-(5-(4-(2-cyanovinyl)phenyl)-4-(4,4-dimethylpiperidin-1-yl)-2,6-dimethylpyridin-3-yl)acetic acid] the EC50 was 0.1 to 1 µM.
`Cc1nc(C)c([C@H](OC(C)(C)C)C(=O)O)c(N2CCC(C)(C)CC2)c1-c1ccc(-c2ncc(-c3ccc(F)cc3)s2)cc1` [Example 6, (S)-2-(tert-Butoxy)-2-(4-(4,4-dimethylpiperidin-1-yl)-5-(4-(5-(4-fluorophenyl)thiazol-2-yl)phenyl)-2,6-dimethylpyridin-3-yl)acetic acid] showed an EC50 of under 0.1 µM.

Same assay, conditions: Renilla, NL43, 120 h, read-out: EC50 μM
For `Cc1nc(C)c([C@H](OC(C)(C)C)C(=O)O)c(N2CCC(C)(C)CC2)c1-c1ccc(CC(N)=O)cc1` [Example 26, (S)-2-(5-(4-(2-Amino-2-oxoethyl)phenyl)-4-(4,4-dimethylpiperidin-1-yl)-2,6-dimethylpyridin-3-yl)-2-(tert-butoxy)acetic acid], the EC50 was 0.373 µM.
For `Cc1nc(C)c([C@H](OC(C)(C)C)C(=O)O)c(N2CCC(C)(C)CC2)c1-c1ccc(-c2ccc(Cl)cc2)cc1` [Example 11, (S)-2-(tert-Butoxy)-2-(5-(4′-chloro-[1,1′-biphenyl]-4-yl)-4-(4,4-dimethylpiperidin-1-yl)-2,6-dimethylpyridin-3-yl)acetic acid], the EC50 was 0.135 µM.
Work on `CC(=O)NNC(=O)c1ccc(-c2c(C)nc(C)c([C@H](OC(C)(C)C)C(=O)O)c2N2CCC(C)(C)CC2)cc1` [Example 37, (S)-2-(5-(4-(2-Acetylhydrazinecarbonyl)phenyl)-4-(4,4-dimethylpiperidin-1-yl)-2,6-dimethylpyridin-3-yl)-2-(tert-butoxy)acetic acid] yielded an EC50 of 1.15 µM.
`Cc1cccc(-c2ccc(-c3c(C)nc(C)c([C@H](OC(C)(C)C)C(=O)O)c3N3CCC(C)(C)CC3)cc2)c1` [Example 17, (S)-2-(tert-Butoxy)-2-(4-(4,4-dimethylpiperidin-1-yl)-2,6-dimethyl-5-(3′-methyl-[1,1′-biphenyl]-4-yl)pyridin-3-yl)acetic acid] gave an EC50 of 0.053 µM.
